Measured values: ChEMBL document CHEMBL1201862, “PubChem BioAssay data set” (2004)
Calls of active or inactive are those of the source.

Tests used:
[1] = biological target: T1, Cytochrome P450 1A2 (Homo sapiens, UniProt P05177);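 note: PubChem cytochrome P450 panel assay, CYP1A2 panel member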
T1 sequence (P05177 whole entry): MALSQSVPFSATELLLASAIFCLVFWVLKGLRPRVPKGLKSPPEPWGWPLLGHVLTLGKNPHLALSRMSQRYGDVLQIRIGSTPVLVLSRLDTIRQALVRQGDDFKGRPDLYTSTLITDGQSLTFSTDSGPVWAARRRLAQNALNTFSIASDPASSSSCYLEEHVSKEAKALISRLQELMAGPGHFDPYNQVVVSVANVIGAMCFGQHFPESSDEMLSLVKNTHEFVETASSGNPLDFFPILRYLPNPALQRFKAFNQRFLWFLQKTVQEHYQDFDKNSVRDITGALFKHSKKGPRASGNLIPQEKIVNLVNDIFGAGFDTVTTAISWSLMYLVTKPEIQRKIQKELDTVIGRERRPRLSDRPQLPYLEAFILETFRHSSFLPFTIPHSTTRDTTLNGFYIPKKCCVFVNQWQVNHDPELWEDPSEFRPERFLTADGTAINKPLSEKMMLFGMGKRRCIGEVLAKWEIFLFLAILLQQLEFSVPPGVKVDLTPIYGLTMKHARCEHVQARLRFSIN

[2] = biological target: Glucose-6-phosphate 1-dehydrogenase (Homo sapiens, UniProt P11413); assay: inhibition of Homo sapiens G6PD, dose series – biochemical, fluorescence, selectivity assay for P. falciparum G6PD inhibitor project, dose response (AID 504792); type: functional
[3] = test system: HeLa; assay: viability loss in HeLa cells – cell-based, 24 h, cherry-picked samples, cytotoxicity control, dose response (AID 504726); type: functional; conditions: Homo sapiens;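 note: potency for cytotoxicity as loss of luminescence signal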
[4] = biological target: ORF 73 (Human herpesvirus 8, UniProt O40947); assay: KSHV LANA DNA-binding disruption – biochemical, fluorescence polarization, cherry-picked samples, dose response (AID 504725); design: species or system Human gammaherpesvirus 8;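 note: fluorescence polarization of a labeled DNA duplex reporting LANA DNA binding; potency is for inhibitors that block LANA binding to the DNA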
[5] = biological target: Keap1/Nrf2 (Homo sapiens, UniProt Q14145); assay: disruptors of Keap1 binding to Nrf2 peptide – biochemical, fluorescence polarization, cherry-picked samples, dose response (AID 588683)
[6] = biological target: Genome polyprotein (dengue virus type 2, UniProt P29990); assay: flavivirus cap methylation enzyme inhibition – biochemical, confirmation dose response, primary screen (AID 588689); type: functional
[7] = biological target: T2, Small ubiquitin-related modifier 1 (Homo sapiens, UniProt P63165); assay: SUMO1 protein interaction blockers, potency – biochemical, fluorescence polarization, uHTS hits, dose response (AID 624382); type: functional; conditions: read-out: IC50_Mean
[8] = biological target: T2, Small ubiquitin-related modifier 1; assay: SUMO1 protein-protein binding blockers, potency – biochemical, FRET, dose response (AID 624383); type: functional; conditions: read-out: IC50_Mean
[9] = biological target: T3, Rac GTPase-activating protein 1 (Homo sapiens, UniProt Q9H0H5); assay: blockers of MgcRacGAP-driven Rac1 GTP hydrolysis – biochemical, ADP Hunter fluorescence, primary and confirmatory, confirmation (AID 624330); type: functional
T3 sequence (Q9H0H5 whole entry): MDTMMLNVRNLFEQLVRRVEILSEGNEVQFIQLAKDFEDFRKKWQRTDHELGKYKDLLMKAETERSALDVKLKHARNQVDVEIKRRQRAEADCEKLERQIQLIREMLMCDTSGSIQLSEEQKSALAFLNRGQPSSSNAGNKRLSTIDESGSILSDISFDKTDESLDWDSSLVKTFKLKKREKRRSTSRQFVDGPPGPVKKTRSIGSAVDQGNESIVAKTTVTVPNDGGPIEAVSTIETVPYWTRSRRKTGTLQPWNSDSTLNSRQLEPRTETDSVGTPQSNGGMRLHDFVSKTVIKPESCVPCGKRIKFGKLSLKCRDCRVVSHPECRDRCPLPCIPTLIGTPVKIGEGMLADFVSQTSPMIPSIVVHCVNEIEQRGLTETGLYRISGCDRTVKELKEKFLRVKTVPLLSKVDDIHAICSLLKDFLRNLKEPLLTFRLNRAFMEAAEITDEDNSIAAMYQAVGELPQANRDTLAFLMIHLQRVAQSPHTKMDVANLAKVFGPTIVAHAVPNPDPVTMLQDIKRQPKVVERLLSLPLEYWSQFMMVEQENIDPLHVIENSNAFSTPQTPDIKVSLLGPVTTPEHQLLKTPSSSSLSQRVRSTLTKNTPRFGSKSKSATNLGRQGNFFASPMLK

[10] = biological target: T4, Histone-lysine N-methyltransferase NSD2 (Homo sapiens, UniProt O96028); type: biochemical
T4 sequence (O96028 whole entry): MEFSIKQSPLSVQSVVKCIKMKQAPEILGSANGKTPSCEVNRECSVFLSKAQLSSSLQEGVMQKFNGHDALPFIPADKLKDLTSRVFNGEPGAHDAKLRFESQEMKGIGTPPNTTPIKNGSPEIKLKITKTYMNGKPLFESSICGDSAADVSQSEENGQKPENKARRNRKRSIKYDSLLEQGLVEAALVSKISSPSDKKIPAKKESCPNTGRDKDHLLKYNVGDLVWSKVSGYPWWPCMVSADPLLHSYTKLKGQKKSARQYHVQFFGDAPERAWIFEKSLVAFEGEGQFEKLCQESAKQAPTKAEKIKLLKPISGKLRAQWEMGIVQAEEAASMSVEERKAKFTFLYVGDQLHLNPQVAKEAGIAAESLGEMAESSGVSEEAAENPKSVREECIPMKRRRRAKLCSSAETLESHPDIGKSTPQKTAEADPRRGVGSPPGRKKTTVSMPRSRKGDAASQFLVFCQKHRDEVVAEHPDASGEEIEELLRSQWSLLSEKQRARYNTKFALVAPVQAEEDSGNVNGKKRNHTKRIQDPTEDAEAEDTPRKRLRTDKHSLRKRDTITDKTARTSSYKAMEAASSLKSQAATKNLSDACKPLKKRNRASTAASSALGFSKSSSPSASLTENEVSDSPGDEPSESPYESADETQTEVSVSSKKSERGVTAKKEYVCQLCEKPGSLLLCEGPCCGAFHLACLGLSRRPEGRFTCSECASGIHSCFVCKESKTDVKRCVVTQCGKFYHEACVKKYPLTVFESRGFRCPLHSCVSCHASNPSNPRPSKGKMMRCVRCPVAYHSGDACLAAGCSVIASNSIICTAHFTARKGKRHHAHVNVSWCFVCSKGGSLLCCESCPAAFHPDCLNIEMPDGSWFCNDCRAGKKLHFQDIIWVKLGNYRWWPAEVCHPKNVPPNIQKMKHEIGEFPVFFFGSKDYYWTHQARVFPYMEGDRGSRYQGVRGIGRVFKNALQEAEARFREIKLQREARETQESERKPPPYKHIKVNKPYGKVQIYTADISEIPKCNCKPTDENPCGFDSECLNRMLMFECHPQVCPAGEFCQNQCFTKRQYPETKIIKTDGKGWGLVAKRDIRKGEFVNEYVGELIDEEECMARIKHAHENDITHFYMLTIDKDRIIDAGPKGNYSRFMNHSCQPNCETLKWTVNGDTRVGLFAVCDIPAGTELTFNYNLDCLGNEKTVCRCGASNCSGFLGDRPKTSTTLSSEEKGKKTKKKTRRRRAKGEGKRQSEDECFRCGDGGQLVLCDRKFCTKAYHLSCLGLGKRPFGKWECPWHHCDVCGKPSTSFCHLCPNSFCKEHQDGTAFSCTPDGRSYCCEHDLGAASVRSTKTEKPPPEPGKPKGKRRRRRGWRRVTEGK

[11] = biological target: ELAV-like protein 1 (Homo sapiens, UniProt Q15717); assay: Identify HuR specific inhibitors.; type: functional
[12] = biological target: RNA-editing ligase 1, mitochondrial (Trypanosoma brucei brucei, UniProt P86926); assay: inhibition of trypanosome RNA editing ligase – biochemical, fluorescence, Trypanosoma brucei, dose response (AID 1117295); type: functional
[13] = test system: BJ; assay: BJ-TERT fibroblast viability loss – cell-based, RAS-independent, luminescence, dose response (AID 1933); type: functional; conditions: Homo sapiens
[14] = test system: BJ; assay: cells; type: functional, cell-based; conditions: Homo sapiens
[15] = test system: BJ; assay: BJ-TERT-LT-ST fibroblast viability loss – cell-based, RAS-independent, luminescence, dose response (AID 1935); type: functional; conditions: Homo sapiens;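 note: BJ fibroblasts immortalized with TERT plus LT and ST oncogenes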
[16] = DRD fibroblast viability loss – cell-based, non-viral oncogenic, luminescence, dose response (AID 1934); type: functional; conditions: Homo sapiens
[17] = biological target: T5, Mannose-6-phosphate isomerase (Homo sapiens, UniProt P34949); assay: MPI inhibition at elevated mannose 6-phosphate – biochemical, fluorescence intensity, high mannose 6-phosphate, primary screen (AID 1220)
T5 sequence (P34949 whole entry): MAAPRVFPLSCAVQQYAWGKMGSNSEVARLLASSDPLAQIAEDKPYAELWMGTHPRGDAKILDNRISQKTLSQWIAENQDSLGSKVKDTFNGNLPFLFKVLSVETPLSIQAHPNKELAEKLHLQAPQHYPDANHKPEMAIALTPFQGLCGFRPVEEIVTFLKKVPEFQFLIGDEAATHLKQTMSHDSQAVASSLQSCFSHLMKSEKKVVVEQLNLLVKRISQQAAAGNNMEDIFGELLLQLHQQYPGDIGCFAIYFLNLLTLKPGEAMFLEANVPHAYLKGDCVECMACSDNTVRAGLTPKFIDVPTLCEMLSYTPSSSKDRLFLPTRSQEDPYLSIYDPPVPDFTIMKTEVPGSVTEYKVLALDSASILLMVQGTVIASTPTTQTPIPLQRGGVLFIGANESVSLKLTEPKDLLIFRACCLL

[18] = biological target: T5, Mannose-6-phosphate isomerase; assay: phosphomannose isomerase inhibition – biochemical, fluorescence intensity, confirmation (AID 1535)
[19] = biological target: DNA dC->dU-editing enzyme APOBEC-3A (Homo sapiens, UniProt P31941); assay: A3A deaminase inhibition for selectivity – biochemical, dose response (AID 504722); type: functional
[20] = biological target: Phosphomannomutase 2 (Homo sapiens, UniProt O15305); assay: Counter screen SAR assay for PMM2 inhibitors via a fluorescence intensity assay. [Related pubchem assays (depositor defined):AID1545, AID1574]
[21] = biological target: DNA dC->dU-editing enzyme APOBEC-3G (Homo sapiens, UniProt Q9HC16); assay: Dose Response confirmation of small molecule APOBEC3G DNA Deaminase Inhibitors via a fluorescence-based single-stranded DNA deaminase assay. [Related pubchem assays (depositor defined):AID493012, AID493028]; type: functional
[22] = biological target: Lysine-specific demethylase 4C (Homo sapiens, UniProt Q9H3R0); assay: inhibition of JMJD2C H3K9me3 demethylation – biochemical, DELFIA europium, cherry-picked samples, dose response (AID 488835); type: functional
[23] = biological target: T6, RNA-binding protein pos-1 (Caenorhabditis elegans, UniProt G5EF15); assay: disruptors of C. elegans POS-1 RNA interaction – biochemical, fluorescence polarization, dose response (AID 1964);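 note: purified POS-1 fused to maltose binding protein made in E. coli; potency of compounds blocking POS-1 binding to fluorescent RNA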
T6 sequence (G5EF15 whole entry): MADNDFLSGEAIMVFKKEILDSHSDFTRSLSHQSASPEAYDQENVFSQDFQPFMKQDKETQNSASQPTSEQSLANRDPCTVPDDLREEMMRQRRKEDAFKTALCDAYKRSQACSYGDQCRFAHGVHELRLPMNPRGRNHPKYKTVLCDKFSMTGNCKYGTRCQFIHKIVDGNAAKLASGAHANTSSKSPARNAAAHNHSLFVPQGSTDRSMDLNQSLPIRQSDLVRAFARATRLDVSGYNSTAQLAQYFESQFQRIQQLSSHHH

[24] = biological target: T7, Zinc finger protein mex-5 (Caenorhabditis elegans, UniProt Q9XUB2); assay: potency of MEX-5 RNA-binding blockers – biochemical, C. elegans, fluorescence polarization, dose response (AID 1960)
T7 sequence (Q9XUB2 whole entry): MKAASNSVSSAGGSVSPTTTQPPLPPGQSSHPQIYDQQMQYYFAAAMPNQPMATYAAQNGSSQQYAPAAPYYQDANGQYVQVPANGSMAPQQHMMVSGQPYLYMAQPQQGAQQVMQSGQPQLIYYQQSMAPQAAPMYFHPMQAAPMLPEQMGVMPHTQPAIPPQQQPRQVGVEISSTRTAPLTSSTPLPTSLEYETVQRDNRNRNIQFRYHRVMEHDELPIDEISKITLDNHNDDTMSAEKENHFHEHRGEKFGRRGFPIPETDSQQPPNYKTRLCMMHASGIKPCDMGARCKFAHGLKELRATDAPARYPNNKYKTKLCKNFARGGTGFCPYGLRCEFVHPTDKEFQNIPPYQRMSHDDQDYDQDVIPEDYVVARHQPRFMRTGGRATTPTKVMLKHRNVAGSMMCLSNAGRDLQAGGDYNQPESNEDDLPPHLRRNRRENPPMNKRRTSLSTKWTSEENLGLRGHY

[25] = biological target: UDP-galactopyranose mutase (Mycobacterium tuberculosis, UniProt P9WIQ1); assay: Inhibitors of Mycobacterium tuberculosis UDP-galactopyranose mutase (UGM) enzyme Measured in Biochemical System Using Plate Reader - 2105-02_Inhibitor_Dose_CherryPick_Activity. [Related pubchem assays (depositor defined):AID504439]
Chain of UDP-galactopyranose mutase (P9WIQ1 whole entry): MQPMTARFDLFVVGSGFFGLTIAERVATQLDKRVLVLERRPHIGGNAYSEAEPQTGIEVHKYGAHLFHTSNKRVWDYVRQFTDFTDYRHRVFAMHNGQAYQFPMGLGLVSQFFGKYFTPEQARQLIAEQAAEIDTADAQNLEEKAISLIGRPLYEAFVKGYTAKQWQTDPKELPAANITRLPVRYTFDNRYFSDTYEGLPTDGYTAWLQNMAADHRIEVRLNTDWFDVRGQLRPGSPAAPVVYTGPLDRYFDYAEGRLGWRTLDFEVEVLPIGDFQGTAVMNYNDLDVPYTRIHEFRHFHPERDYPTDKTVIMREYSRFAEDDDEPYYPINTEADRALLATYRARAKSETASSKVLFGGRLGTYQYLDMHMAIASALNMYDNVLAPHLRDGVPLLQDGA

T2 sequence (P63165 whole entry): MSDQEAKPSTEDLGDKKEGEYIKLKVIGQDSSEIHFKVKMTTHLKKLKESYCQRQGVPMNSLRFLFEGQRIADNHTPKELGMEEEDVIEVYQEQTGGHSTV
Chain of Genome polyprotein (P29990 2492-3391 limits assumed): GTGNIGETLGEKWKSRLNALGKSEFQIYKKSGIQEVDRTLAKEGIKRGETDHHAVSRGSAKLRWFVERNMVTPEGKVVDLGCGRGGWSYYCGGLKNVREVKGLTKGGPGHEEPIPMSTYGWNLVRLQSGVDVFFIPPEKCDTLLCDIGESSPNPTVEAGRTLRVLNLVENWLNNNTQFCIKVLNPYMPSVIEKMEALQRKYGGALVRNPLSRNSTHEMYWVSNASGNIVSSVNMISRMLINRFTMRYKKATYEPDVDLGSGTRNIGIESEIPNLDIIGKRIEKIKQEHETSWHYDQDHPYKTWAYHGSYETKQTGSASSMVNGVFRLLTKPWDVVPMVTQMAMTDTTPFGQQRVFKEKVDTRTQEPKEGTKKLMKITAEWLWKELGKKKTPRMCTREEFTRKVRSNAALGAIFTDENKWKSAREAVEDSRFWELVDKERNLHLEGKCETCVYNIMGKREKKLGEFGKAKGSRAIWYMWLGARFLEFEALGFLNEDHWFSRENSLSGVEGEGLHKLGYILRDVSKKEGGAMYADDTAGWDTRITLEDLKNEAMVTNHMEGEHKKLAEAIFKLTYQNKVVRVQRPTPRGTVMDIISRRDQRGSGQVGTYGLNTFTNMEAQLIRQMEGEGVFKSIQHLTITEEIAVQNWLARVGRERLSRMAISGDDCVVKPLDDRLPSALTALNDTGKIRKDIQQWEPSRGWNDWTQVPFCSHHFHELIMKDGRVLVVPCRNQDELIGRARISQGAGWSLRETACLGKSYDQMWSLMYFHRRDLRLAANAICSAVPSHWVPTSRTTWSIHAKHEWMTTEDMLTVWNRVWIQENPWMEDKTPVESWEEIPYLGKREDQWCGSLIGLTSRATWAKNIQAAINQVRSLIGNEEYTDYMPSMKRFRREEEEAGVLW
Chain of ORF 73 (O40947 whole entry): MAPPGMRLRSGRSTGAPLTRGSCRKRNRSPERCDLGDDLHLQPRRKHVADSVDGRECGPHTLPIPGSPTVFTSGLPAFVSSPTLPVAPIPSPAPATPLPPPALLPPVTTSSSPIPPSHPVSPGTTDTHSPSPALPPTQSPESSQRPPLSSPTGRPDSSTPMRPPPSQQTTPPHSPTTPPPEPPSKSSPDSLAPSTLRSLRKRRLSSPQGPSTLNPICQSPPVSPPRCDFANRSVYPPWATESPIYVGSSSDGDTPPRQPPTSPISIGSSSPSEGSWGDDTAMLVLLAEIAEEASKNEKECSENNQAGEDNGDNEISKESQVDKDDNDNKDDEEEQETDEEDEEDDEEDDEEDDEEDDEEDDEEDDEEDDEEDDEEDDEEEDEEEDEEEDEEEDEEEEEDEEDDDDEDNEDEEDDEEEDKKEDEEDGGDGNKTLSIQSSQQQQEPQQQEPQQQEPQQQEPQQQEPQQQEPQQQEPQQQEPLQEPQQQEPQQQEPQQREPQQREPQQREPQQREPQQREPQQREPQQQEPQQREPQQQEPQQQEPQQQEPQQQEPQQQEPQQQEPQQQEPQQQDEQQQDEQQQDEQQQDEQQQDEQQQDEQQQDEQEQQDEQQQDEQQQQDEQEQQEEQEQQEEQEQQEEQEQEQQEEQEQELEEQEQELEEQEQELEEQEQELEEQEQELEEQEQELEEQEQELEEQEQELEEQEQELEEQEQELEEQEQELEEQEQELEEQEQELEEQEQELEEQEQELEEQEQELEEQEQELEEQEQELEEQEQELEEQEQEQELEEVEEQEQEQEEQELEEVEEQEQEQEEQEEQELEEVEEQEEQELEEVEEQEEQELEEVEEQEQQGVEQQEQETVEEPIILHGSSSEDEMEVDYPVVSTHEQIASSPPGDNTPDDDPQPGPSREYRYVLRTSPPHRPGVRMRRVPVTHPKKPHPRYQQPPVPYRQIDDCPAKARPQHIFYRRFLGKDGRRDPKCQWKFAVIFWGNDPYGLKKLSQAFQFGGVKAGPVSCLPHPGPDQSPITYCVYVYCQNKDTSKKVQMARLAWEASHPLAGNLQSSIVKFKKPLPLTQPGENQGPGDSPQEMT
Chain of Keap1/Nrf2 (Q16236 whole entry): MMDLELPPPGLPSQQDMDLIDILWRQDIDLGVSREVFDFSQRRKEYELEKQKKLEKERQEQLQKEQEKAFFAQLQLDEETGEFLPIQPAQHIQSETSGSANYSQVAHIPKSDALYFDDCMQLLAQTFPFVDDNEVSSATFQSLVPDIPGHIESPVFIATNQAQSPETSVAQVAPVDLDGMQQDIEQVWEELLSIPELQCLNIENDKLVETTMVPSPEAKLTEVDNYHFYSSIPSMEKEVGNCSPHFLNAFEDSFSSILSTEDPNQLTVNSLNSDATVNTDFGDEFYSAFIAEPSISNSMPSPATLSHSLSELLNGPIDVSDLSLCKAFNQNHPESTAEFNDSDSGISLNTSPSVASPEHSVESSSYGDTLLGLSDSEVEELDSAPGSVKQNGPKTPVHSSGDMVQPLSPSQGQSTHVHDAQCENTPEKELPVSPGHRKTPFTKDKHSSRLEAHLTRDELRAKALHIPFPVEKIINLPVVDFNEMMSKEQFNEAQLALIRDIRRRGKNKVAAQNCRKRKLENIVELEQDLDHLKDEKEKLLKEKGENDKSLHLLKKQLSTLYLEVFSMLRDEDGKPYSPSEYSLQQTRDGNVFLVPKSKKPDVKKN
Chain of Keap1/Nrf2 (Q14145 whole entry): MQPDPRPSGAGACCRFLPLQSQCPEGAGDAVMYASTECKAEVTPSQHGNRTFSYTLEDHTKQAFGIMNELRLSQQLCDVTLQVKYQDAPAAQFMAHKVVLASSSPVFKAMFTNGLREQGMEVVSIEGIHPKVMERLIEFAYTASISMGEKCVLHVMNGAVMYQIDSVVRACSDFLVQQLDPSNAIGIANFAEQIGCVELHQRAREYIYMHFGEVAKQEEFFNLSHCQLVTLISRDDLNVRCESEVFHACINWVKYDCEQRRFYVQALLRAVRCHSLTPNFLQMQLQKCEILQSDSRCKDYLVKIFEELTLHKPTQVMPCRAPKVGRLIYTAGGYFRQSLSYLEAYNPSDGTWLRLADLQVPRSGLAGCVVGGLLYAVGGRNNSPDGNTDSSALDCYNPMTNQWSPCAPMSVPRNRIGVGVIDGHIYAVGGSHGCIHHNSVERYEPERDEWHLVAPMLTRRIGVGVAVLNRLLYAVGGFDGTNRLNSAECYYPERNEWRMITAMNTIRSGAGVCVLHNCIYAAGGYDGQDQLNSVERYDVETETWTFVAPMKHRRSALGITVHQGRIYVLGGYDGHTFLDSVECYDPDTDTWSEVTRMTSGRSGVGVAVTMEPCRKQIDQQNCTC
Chain of RNA-editing ligase 1, mitochondrial (P86926 whole entry): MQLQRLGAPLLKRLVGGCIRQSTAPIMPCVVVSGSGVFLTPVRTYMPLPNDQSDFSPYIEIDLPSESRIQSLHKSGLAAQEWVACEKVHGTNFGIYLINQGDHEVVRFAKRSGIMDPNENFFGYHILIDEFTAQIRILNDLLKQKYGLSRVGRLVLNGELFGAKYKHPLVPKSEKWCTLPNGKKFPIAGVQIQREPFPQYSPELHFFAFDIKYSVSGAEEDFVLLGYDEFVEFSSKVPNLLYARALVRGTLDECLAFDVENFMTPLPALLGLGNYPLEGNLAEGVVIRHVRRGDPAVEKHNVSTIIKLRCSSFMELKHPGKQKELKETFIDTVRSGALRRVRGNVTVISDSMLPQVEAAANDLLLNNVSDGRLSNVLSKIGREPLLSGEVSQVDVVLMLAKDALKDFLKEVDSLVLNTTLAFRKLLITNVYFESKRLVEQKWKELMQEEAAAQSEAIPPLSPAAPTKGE
Chain of DNA dC->dU-editing enzyme APOBEC-3G (Q9HC16 whole entry): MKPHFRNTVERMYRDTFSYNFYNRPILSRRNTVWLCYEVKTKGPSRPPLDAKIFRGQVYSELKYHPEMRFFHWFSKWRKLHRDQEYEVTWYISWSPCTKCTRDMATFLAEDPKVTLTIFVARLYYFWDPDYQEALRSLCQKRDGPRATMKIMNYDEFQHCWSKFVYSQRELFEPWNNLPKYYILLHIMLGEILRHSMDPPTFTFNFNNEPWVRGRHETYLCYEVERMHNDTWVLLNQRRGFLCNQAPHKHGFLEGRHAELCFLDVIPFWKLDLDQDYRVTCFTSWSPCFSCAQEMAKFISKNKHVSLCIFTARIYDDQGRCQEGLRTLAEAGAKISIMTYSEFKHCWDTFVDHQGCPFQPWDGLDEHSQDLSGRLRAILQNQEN
Chain of DNA dC->dU-editing enzyme APOBEC-3A (P31941 whole entry): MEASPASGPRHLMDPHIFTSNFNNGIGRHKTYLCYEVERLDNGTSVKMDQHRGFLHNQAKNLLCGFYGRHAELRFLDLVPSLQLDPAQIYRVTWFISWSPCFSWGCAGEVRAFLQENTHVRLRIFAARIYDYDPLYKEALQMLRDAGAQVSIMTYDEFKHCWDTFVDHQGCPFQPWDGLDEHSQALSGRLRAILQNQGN

Structure (SMILES): O=C(c1cnccn1)N1CCC2(CCN(Cc3cc(C(F)(F)F)cc(C(F)(F)F)c3)CC2)CC1
- AC50 [1]: inactive

Structure (SMILES): O=C(O)c1cc(N2C(=O)C=CC2=O)cc(N2C(=O)C=CC2=O)c1
- IC50 [2]: 61.8 µM (inactive)
- AC50 [3]: > 350 µM (inactive)
- AC50 [4]: 94.5 µM (active)
- AC50 [5]: 19 µM (active)
- IC50 [6]: 19.6 µM (active)
- IC50 [7]: > 66.6 µM (inactive)
- IC50 [8]: 13.7 µM (active)
- IC50 [9]: 19.7 µM (active)
- AC50 [10]: 6.9 µM (active)
- IC50 [11]: 26.9 µM (inactive)
- IC50 [12]: 12.3 µM (inactive)

Structure (SMILES): N#Cc1ccc(/N=c2\ssnc2Cl)cc1
- EC50 [13]: 6.16 µM (inconclusive)
- EC50 [14]: > 150 µM (inconclusive)
- EC50 [15]: > 150 µM (inconclusive)
- EC50 [16]: 14.3 µM (active)
- IC50 [17]: 6.34 µM (not active)
- IC50 [18]: 4.14 µM (active)
- IC50 [19]: > 100 µM (inactive)
- IC50 [20]: > 100 µM (inactive)
- IC50 [21]: 7.33 µM (active)
- AC50 [22]: 5.67 µM (active)

Structure (SMILES): O=C1c2cccc3c(N4CCCCC4)ccc(c23)C(=O)N1c1ccccn1
- EC50 [23]: > 300 µM (inconclusive)
- EC50 [24]: 5.26 µM (inconclusive)
- AC50 [25]: 58.7 µM (active)
